According to patent US20070128217A1 (priority 2003, published 2007):

Experiments:
[1] = test system: antibodies in sera from SARS patients (sera 1a, 1b, 2, 6, 37, 62, London, SARS-yellow, SARS-green); format: binding, human; parameters: Binding of serum 6 to linear peptides of protein X1 of SARS-CoV Urbani / Binding of serum 37 to linear peptides of protein X1 of SARS-CoV Urbani / Binding of serum 6 to looped/cyclic peptide (PEPSCAN-ELISA) / Binding of serum 37 to looped/cyclic peptide (PEPSCAN-ELISA) / Binding of serum 37 to looped/cyclic peptides of protein X1 of SARS-CoV Urbani / Binding of serum 6 to linear peptides of protein X2 / Binding of serum 37 to linear peptides of protein X2 / Binding of serum 37 to looped/cyclic peptides of protein X2 of SARS-CoV Urbani / Binding of serum 6 to linear peptides of protein M of SARS-CoV Urbani / Binding of serum 37 to linear peptides of protein M of SARS-CoV Urbani / Binding of serum 6 to looped/cyclic peptides of protein M of SARS-CoV Urbani / Binding of serum 37 to looped/cyclic peptides of protein M of SARS-CoV Urbani / Binding of serum 6 to linear peptides of protein X3 of SARS-CoV Urbani / Binding of serum 37 to linear peptides of protein X3 of SARS-CoV Urbani / Binding of serum 37 to looped/cyclic peptides of protein X3 of SARS-CoV Urbani / Binding of serum 6 to linear peptides of protein X4 of SARS-CoV Urbani / Binding of serum 37 to linear peptides of protein X4 of SARS-CoV Urbani / Binding of serum 37 to looped/cyclic peptides of protein X4 of SARS-CoV Urbani / Binding of serum 6 to linear peptides of protein X5 of SARS-CoV Urbani / Binding of serum 37 to linear peptides of protein X5 of SARS-CoV Urbani / Binding of serum 37 to looped/cyclic peptides of protein X5 of SARS-CoV Urbani / Binding of serum 6 to linear peptides of protein N of SARS-CoV Urbani / Binding of serum 37 to linear peptides of protein N of SARS-CoV Urbani / Binding of serum 6 to linear peptide (PEPSCAN-ELISA) / Binding of serum 1a to looped/cyclic peptides of protein N of SARS-CoV Urbani / Binding of serum 1b to looped/cyclic peptides of protein N of SARS-CoV Urbani / Binding of serum 2 to looped/cyclic peptides of protein N of SARS-CoV Urbani / Binding of serum 6 to looped/cyclic peptides of protein N of SARS-CoV Urbani / Binding of serum 37 to looped/cyclic peptides of protein N of SARS-CoV Urbani / Binding of serum 62 to looped/cyclic peptides of protein N of SARS-CoV Urbani / Binding of serum London to looped/cyclic peptides of protein N of SARS-CoV Urbani / Binding of serum SARS-green to looped/cyclic peptides of protein N of SARS-CoV Urbani: unit not given here
[2] = test system: control sera (pooled serum of ten healthy LUMC hospital workers; commercial negative donor pooled serum from the Dutch bloodbank); format: binding, human; parameters: Binding of Control serum LUMC to linear peptides / Binding of Control serum Blood-bank to linear peptides / Binding of Control serum LUMC to looped peptides / Binding of Control Serum Blood-Bank to Looped peptides / Binding of Control serum LUMC to linear peptides of the protein M of SARS-CoV Urbani / Binding of Control serum Blood-bank to linear peptides of the protein M of SARS-CoV Urbani / Binding of Control serum LUMC to looped peptides of the protein M of SARS-CoV Urbani / Binding of Control Serum Blood-Bank to Looped peptides of the protein M of SARS-CoV Urbani: unit not given here
[3] = test system: rabbit serum obtained by immunizing a rabbit with the SARS-CoV strain Frankfurt 1; format: binding; parameters: Binding of a rabbit serum to linear peptides / Binding of a rabbit serum to looped peptides / Rabbit serum linear peptides / Rabbit serum looped peptides / Binding of a rabbit serum to linear peptides of protein N of SARS-CoV Urbani (Rabbit serum linear peptides) / Binding of a rabbit serum to looped/cyclic peptides of protein N of SARS-CoV Urbani (Rabbit serum looped peptides): unit not given here

NLDVIISSIVRQLFK
Binding of serum 1a to linear peptides of protein X3 of SARS-CoV Urbani [1]: 0.7
Binding of serum 1a to looped/cyclic peptides of protein X3 of SARS-CoV Urbani [1]: 0.5
Binding of serum 1b to linear peptides of protein X3 of SARS-CoV Urbani [1]: 0.2
Binding of serum 1b to looped/cyclic peptides of protein X3 of SARS-CoV Urbani [1]: 0.4
Binding of serum 2 to linear peptides of protein X3 of SARS-CoV Urbani [1]: 0.4
Binding of serum 2 to looped/cyclic peptides of protein X3 of SARS-CoV Urbani [1]: 0.5
Binding of serum 6 to linear peptides of protein X3 of SARS-CoV Urbani [1]: 0.6
Binding of serum 6 to looped/cyclic peptides of protein X3 of SARS-CoV Urbani [1]: 0.8
Binding of serum 37 to linear peptides of protein X3 of SARS-CoV Urbani [1]: 0.6
Binding of serum 37 to looped/cyclic peptides of protein X3 of SARS-CoV Urbani [1]: 0.5
Binding of serum 62 to linear peptides of protein X3 of SARS-CoV Urbani [1]: 0.6
Binding of serum 62 to looped/cyclic peptides of protein X3 of SARS-CoV Urbani [1]: 0.4
Binding of serum London to linear peptides of protein X3 of SARS-CoV Urbani [1]: 0.7
Binding of serum London to looped/cyclic peptides of protein X3 of SARS-CoV Urbani [1]: 1.8
Binding of serum SARS-green to linear peptides of protein X3 of SARS-CoV Urbani [1]: 0.3
Binding of serum SARS-green to looped/cyclic peptides of protein X3 of SARS-CoV Urbani [1]: 0.2
Binding of serum SARS-yellow to linear peptides of protein X3 of SARS-CoV Urbani [1]: 0.3
Binding of serum SARS-yellow to looped/cyclic peptides of protein X3 of SARS-CoV Urbani [1]: 0.6
Binding of Control Serum Blood-Bank to Looped peptides of the protein X3 of SARS-CoV Urbani [2]: 0.8
Binding of Control serum Blood-bank to linear peptides of the protein X3 of SARS-CoV Urbani [2]: 0.8
Binding of Control serum LUMC to linear peptides of the protein X3 of SARS-CoV Urbani [2]: 0.6
Binding of Control serum LUMC to looped peptides of the protein X3 of SARS-CoV Urbani [2]: 0.8
Rabbit serum linear peptides [3]: 0.3
Rabbit serum looped peptides [3]: 0.2

NPETNILLNVPLRGT
Binding of serum 1a to linear peptides of protein M of SARS-CoV Urbani [1]: 0.8
Binding of serum 1a to looped/cyclic peptides of protein M of SARS-CoV Urbani [1]: 0.8
Binding of serum 1b to linear peptides of protein M of SARS-CoV Urbani [1]: 0.6
Binding of serum 1b to looped/cyclic peptides of protein M of SARS-CoV Urbani [1]: 0.7
Binding of serum 2 to linear peptides of protein M of SARS-CoV Urbani [1]: 0.8
Binding of serum 2 to looped/cyclic peptides of protein M of SARS-CoV Urbani [1]: 0.9
Binding of serum 6 to linear peptides of protein M of SARS-CoV Urbani [1]: 0.3
Binding of serum 6 to looped/cyclic peptides of protein M of SARS-CoV Urbani [1]: 0.7
Binding of serum 37 to linear peptides of protein M of SARS-CoV Urbani [1]: 0.9
Binding of serum 37 to looped/cyclic peptides of protein M of SARS-CoV Urbani [1]: 0.7
Binding of serum 62 to linear peptides of protein M of SARS-CoV Urbani [1]: 0.9
Binding of serum 62 to looped/cyclic peptides of protein M of SARS-CoV Urbani [1]: 0.7
Binding of serum London to linear peptides of protein M of SARS-CoV Urbani [1]: 0.3
Binding of serum London to looped/cyclic peptides of protein M of SARS-CoV Urbani [1]: 0.3
Binding of serum SARS-green to linear peptides of protein M of SARS-CoV Urbani [1]: 0.3
Binding of serum SARS-green to looped/cyclic peptides of protein M of SARS-CoV Urbani [1]: 0.4
Binding of serum SARS-yellow to linear peptides of protein M of SARS-CoV Urbani [1]: 0.1
Binding of serum SARS-yellow to looped/cyclic peptides of protein M of SARS-CoV Urbani [1]: 0.7
Binding of Control Serum Blood-Bank to Looped peptides of the protein M of SARS-CoV Urbani [2]: 0.8
Binding of Control serum Blood-bank to linear peptides of the protein M of SARS-CoV Urbani [2]: 0.7
Binding of Control serum LUMC to linear peptides of the protein M of SARS-CoV Urbani [2]: 0.4
Binding of Control serum LUMC to looped peptides of the protein M of SARS-CoV Urbani [2]: 0.9
Rabbit serum linear peptides [3]: 0.4
Rabbit serum looped peptides [3]: 0.2

NPLLYDANYFVCWHT
Binding of serum 1a to linear peptides of protein X1 of SARS-CoV Urbani [1]: 0.9
Binding of serum 1a to looped/cyclic peptide (PEPSCAN-ELISA) [1]: 0.5
Binding of serum 1b to linear peptides of protein X1 of SARS-CoV Urbani [1]: 0.6
Binding of serum 1b to looped/cyclic peptide (PEPSCAN-ELISA) [1]: 0.4
Binding of serum 2 to linear peptides of protein X1 of SARS-CoV Urbani [1]: 0.6
Binding of serum 2 to looped/cyclic peptide (PEPSCAN-ELISA) [1]: 0.4
Binding of serum 6 to linear peptides of protein X1 of SARS-CoV Urbani [1]: 0.5
Binding of serum 6 to looped/cyclic peptide (PEPSCAN-ELISA) [1]: 0.3
Binding of serum 37 to linear peptides of protein X1 of SARS-CoV Urbani [1]: 0.8
Binding of serum 37 to looped/cyclic peptide (PEPSCAN-ELISA) [1]: 0.5
Binding of serum 62 to linear peptides of protein X1 of SARS-CoV Urbani [1]: 0.7
Binding of serum 62 to looped/cyclic peptide (PEPSCAN-ELISA) [1]: 0.6
Binding of serum London to linear peptides of protein X1 of SARS-CoV Urbani [1]: 0.3
Binding of serum London to looped/cyclic peptide (PEPSCAN-ELISA) [1]: 0.2
Binding of serum SARS-green to linear peptides of protein X1 of SARS-CoV Urbani [1]: 0.4
Binding of serum SARS-green to looped/cyclic peptide (PEPSCAN-ELISA) [1]: 0.3
Binding of serum SARS-yellow to linear peptides of protein X1 of SARS-CoV Urbani [1]: 0.4
Binding of serum SARS-yellow to looped/cyclic peptide (PEPSCAN-ELISA) [1]: 0.4
Binding of Control Serum Blood-Bank to Looped peptides [2]: 0.7
Binding of Control serum Blood-bank to linear peptides [2]: 0.6
Binding of Control serum LUMC to linear peptides [2]: 0.6
Binding of Control serum LUMC to looped peptides [2]: 0.6
Binding of a rabbit serum to linear peptides [3]: 0.2
Binding of a rabbit serum to looped peptides [3]: 0.6
